Drawing on patent US20230192617A1, “AZABICYCLIC(THIO)AMIDES AS FUNGICIDAL COMPOUNDS” (Bayer CropScience Aktiengesellschaft, priority 2020, published 2023), this text covers chromatographic logP for 55 compounds.

What is called chromatographic logP is lipophilicity estimated from chromatographic retention. Lower therefore signals a more hydrophilic compound.

The first series in a line: Measurement of Log P values by HPLC on reversed phase columns (EEC directive 79/831 Annex V.A8). It is filed as physicochemical. The following applies: method [a]: LC-UV, acidic range, 0.1% formic acid in water and acetonitrile as eluent. The procedure:
A-1.1. Measurement of Log P Values
Measurement of Log P values as provided herein was performed according to EEC directive 79/831 Annex V.A8 by HPLC (High Performance Liquid Chromatography) on reversed phase columns with the following methods:
^[a] Log P value is determined by measurement of LC-UV, in an acidic range, with 0.1% formic acid in water and acetonitrile as eluent (linear gradient from 10% acetonitrile to 95% acetonitrile).
^[b] Log P value is determined by measurement of LC-UV, in a neutral range, with 0.001 molar ammonium acetate solution in water and acetonitrile as eluent (linear gradient from 10% acetonitrile to 95% acetonitrile).
^[c] Log P value is determined by measurement of LC-UV, in an acidic range, with 0.1% phosphoric acid and acetonitrile as eluent (linear gradient from 10% acetonitrile to 95% acetonitrile).
If more than one Log P value is available within the same method, all the values are given and separated by “+”. […]
The compound `O=C(O)c1c(Oc2cccc(C(F)F)c2)nnc2ccccc12` [1-11] registered a chromatographic logP of 1.87.

As for `O=C(O)c1c(Oc2cccc(C(F)(F)F)c2)nnc2ccccc12` [1-01], the chromatographic logP stood at 2.27.

`Cc1cccc(Oc2nnc3ccccc3c2C(=O)O)c1` [1-04] registered a chromatographic logP of 1.92.

The compound `COC(=O)c1c(Oc2cccc(C(F)F)c2)nnc2ccccc12` [1-09] displayed a chromatographic logP of 3.06.

`C=Cc1cccc(Oc2cnc3ccccc3c2C(=O)O)c1` [1-50] yielded a chromatographic logP of 2.41.

Compound `O=C(O)c1c(Oc2cccc(C(F)(F)F)c2)cnc2ccoc12` [1-15, 6-[3-(trifluoromethyl)phenoxy]furo[3,2-b]pyridine-7-carboxylic acid] yielded a chromatographic logP of 2.08.

Regarding `O=C(O)c1c(Oc2cccc(Cl)c2)nnc2ccccc12` [1-03], the chromatographic logP was found to be 2.07. This chromatographic logP and that of the compound before are within 0.2 log units of each other.

With `CC(C)OC(=O)c1c(Oc2cccc(Cl)c2)nnc2ccccc12` [1-14], the chromatographic logP came out at 4.19.

Take `O=C(O)c1c(Oc2cccc(C(F)(F)F)c2)nnc2c1CCCC2` [1-31]: the chromatographic logP came to 1.6.

In turn, `CCOC(=O)c1c(Oc2cccc(Br)c2F)nnc2c1CCCC2` [1-21] showed a chromatographic logP of 3.85.

With `C#Cc1cccc(Oc2cnc3ccccc3c2C(=O)O)c1` [1-49], the chromatographic logP amounted to 2.2.

On to `O=C(O)c1c(Oc2cccc(Cl)c2F)nnc2c1CCCC2` [1-29, 3-(3-chloro-2-fluoro-phenoxy)-5,6,7,8-tetrahydrocinnoline-4-carboxylic acid], for which the chromatographic logP was 1.46.

The compound `COC(=O)c1c(Oc2cccc(C(F)(F)F)c2)cnc2ccccc12` [1-13, methyl 3-(3-(trifluoromethyl)phenoxy)quinoline-4-carboxylate] showed a chromatographic logP of 3.8.

`O=C(O)c1c(Oc2cccc(C(F)F)c2)nnc2c1CCCC2` [1-32]: the chromatographic logP was 1.18.

As to `CCOC(=O)c1c(Oc2cccc(C(F)(F)F)c2)nnc2c1CCCC2` [1-22], the chromatographic logP turned out to be 3.9.

`O=C(O)c1c(Oc2cccc(C(F)(F)F)c2)cnc2ccccc12` [1-07, 3-(3-(trifluoromethyl)phenoxy)quinoline-4-carboxylic acid] gave a chromatographic logP of 2.57.

In turn, `O=C(O)c1c(Oc2cccc(C(F)F)c2)cnc2ccccc12` [1-41] displayed a chromatographic logP of 2.1.

For `O=C(O)c1c(Oc2cccc(C3CC3)c2F)nnc2ccccc12` [1-18, 3-(3-cyclopropyl-2-fluoro-phenoxy)cinnoline-4-carboxylic acid], the chromatographic logP turned out to be 2.23.

`CCOC(=O)c1c(Oc2cccc(C(F)F)c2)nnc2c1CCCC2` [1-23]: the chromatographic logP came to 3.37.

For the compound `O=C(O)c1c(Oc2cccc(Br)c2F)cnc2ccccc12` [1-39], the chromatographic logP turned out to be 2.59.

Regarding `O=C(O)c1c(Oc2cccc(Br)c2F)nnc2c1CCCC2` [1-27], the chromatographic logP was determined as 1.55.

Staying with this series, now noted: method [b]: LC-UV, neutral range, 0.001 molar ammonium acetate solution in water and acetonitrile as eluent.
In the case of `O=C(O)c1c(Oc2cccc(C(F)(F)F)c2)nnc2c1CCCC2` [1-31], the chromatographic logP worked out at 0.55.

`O=C(O)c1c(Oc2cccc(Cl)c2F)nnc2c1CCCC2` [1-29, 3-(3-chloro-2-fluoro-phenoxy)-5,6,7,8-tetrahydrocinnoline-4-carboxylic acid] came in with a chromatographic logP of 0.42. The chromatographic logP values of the last two compounds are within 0.2 log units of each other.

As to `CCOC(=O)c1c(Oc2cccc(C(F)F)c2)nnc2c1CCCC2` [1-23], the chromatographic logP came out at 3.19.

Consider `O=C(O)c1c(Oc2cccc(Br)c2F)nnc2c1CCCC2` [1-27], for which the chromatographic logP was found to be 0.45.

Staying with this series, now noted: reversed phase HPLC column, method [a]: LC-UV, acidic range, 0.1% formic acid in water and acetonitrile as eluent.
`O=C(O)c1c(Oc2cccc(C3CC3)c2F)nnc2c1CCCC2` [1-30] yielded a chromatographic logP of 1.72.

The compound `CC1(C)COc2nnc(Oc3cccc(C(F)(F)F)c3)c(C(=O)O)c2OC1` [1-20] yielded a chromatographic logP of 2.02.

Compound `CON(CCc1ccc(Cl)cc1Cl)C(=O)c1c(Oc2cccc(C(F)(F)F)c2)nnc2ccccc12` [I-190] gave a chromatographic logP of 5.03.

On to `CCOC(=O)c1c(Oc2cccc(Cl)c2F)nnc2c1CCC2` [1-40], for which the chromatographic logP came to 3.37.

`CCOC(=O)c1c(Oc2cccc(Br)c2F)nnc2ccccc12` [1-37]: the chromatographic logP amounted to 4.02.

With `O=C(O)c1c(Oc2cccc(C(F)(F)F)c2)nnc2cnccc12` [1-05], the chromatographic logP was determined as 2.04.

Take `O=C(O)c1c(Oc2cccc(C(F)(F)F)c2)nnc2ccsc12` [1-57]: the chromatographic logP was determined as 2.39.

`CC1(C)CCc2c1nnc(Oc1cccc(C(F)(F)F)c1)c2C(=O)O` [1-46]: the chromatographic logP amounted to 2.49.

`O=C(O)c1c(Oc2cccc(Br)c2F)nnc2ccccc12` [1-35]: the chromatographic logP stood at 2.43.

As for `CC1(C)COc2c(nnc(Oc3cccc(C(F)(F)F)c3)c2C(=O)O)O1` [1-19], the chromatographic logP came out at 1.82.

With `CCON(Cc1ccccc1)C(=O)c1c(Oc2cccc(C(F)(F)F)c2)nnc2ccccc12` [I-247], the chromatographic logP was determined as 4.24.

In the case of `CCOC(=O)c1c(Oc2cccc(C(F)(F)F)c2)nnc2c1CCC2(C)C` [1-44], the chromatographic logP came to 4.4.

As for `CCOC(=O)c1c(Oc2cccc(C(F)(F)F)c2)nnc2cc(C3CC3)ccc12` [1-53], the chromatographic logP is 4.81.

`N#Cc1cccc(Oc2nnc3ccccc3c2C(=O)O)c1` [1-10]: the chromatographic logP came to 1.56.

For `O=C(O)c1c(Oc2cccc(Cl)c2F)nnc2c1CCC2` [1-56], the chromatographic logP is 1.53.

`CCOC(=O)c1c(Oc2cccc(C(F)(F)F)c2)nnc2ccccc12` [1-42]: the chromatographic logP was found to be 3.95.

As for `Cc1ccc2c(C(=O)O)c(Oc3cccc(C(F)(F)F)c3)nnc2c1` [1-12, 7-methyl-3-(3-(trifluoromethyl)phenoxy)cinnoline-4-carboxylic acid], the chromatographic logP is 2.74.

With `O=C(O)c1c(Oc2cccc(C3CC3)c2)nnc2ccccc12` [1-36], the chromatographic logP came out at 2.36.

Take `CCOC(=O)c1c(Oc2cccc(C(F)(F)F)c2)nnc2cnccc12` [1-54]: the chromatographic logP is 3.51.

Consider `O=C(O)c1c(Oc2cccc(Cl)c2)nnc2c1CCCC2` [1-28], for which the chromatographic logP amounted to 1.28.

For `CCOC(=O)c1c(Oc2cccc(C3CC3)c2F)nnc2c1CCCC2` [1-25], the chromatographic logP came to 3.79.

`C[C@H](NC(=O)c1c(Oc2ccc(Cl)cc2)nnc2ccccc12)c1cccc(C(F)(F)F)c1` (racemic) [I-204] had a chromatographic logP of 3.92.

The compound `Cc1ccc(C(F)(F)CNC(=O)c2c(Cl)nnc3ccccc23)c(C)c1` [3-02] gave a chromatographic logP of 3.23.

For the compound `O=C(O)c1c(Oc2cccc(C(F)(F)F)c2)nnc2cc(F)ccc12` [1-38], the chromatographic logP was 2.62.

In turn, `Cc1cccc(Oc2cnc3ccccc3c2C(=O)O)c1` [1-43] had a chromatographic logP of 2.18.

Take `O=C(O)c1c(Oc2cccc(Br)c2)cnc2ccccc12` [1-47]: the chromatographic logP was 2.48.

Turning to `O=C(O)c1c(Oc2cccc(C3CC3)c2)cnc2ccccc12` [1-45], the chromatographic logP turned out to be 2.59. This chromatographic logP and that of the compound before are within 0.2 log units of each other.

Turning to `COC(=O)c1c(Oc2cccc(C#N)c2)nnc2ccccc12` [1-08], the chromatographic logP worked out at 2.64. The chromatographic logP values of the last two compounds are within 0.2 log units of each other.

As for `O=C(O)c1c(Oc2cccc(C(F)(F)F)c2)nnc2cc(C3CC3)ccc12` [1-34], the chromatographic logP is 3.21.

`O=C(O)c1c(Oc2cncc(C(F)(F)F)c2)nnc2ccccc12` [1-06] gave a chromatographic logP of 1.83.

The compound `CCOC(=O)c1c(Oc2cccc(Cl)c2)nnc2c1CCCC2` [1-24] displayed a chromatographic logP of 3.72.

Regarding `COC(=O)c1c(Oc2cccc(C(F)(F)F)c2)nnc2ccsc12` [1-55], the chromatographic logP came to 3.34.

As to `O=C(O)c1c(Oc2cccc(Br)c2)nnc2ccccc12` [1-48], the chromatographic logP is 2.2.

`O=C(O)c1c(Oc2cccc(C(F)(F)F)c2)nnc2c1OCCO2` [1-17, 3-[3-(trifluoromethyl)phenoxy]-6,7-dihydro-[1,4]dioxino[2,3-c]pyridazine-4-carboxylic acid] came in with a chromatographic logP of 1.31.

The same series, now with this note: reversed phase HPLC column, method [b]: LC-UV, neutral range, 0.001 molar ammonium acetate solution in water and acetonitrile as eluent.
As for `O=C(O)c1c(Oc2cccc(C3CC3)c2F)nnc2c1CCCC2` [1-30], the chromatographic logP came to 0.6.
